Data: patent publication US8314112B2 (Novartis AG, priority 2008, dated 2012)

Molecular target: T1, human ALK5 (kinase domain, ALK5 T204D) (Homo sapiens, UniProt P36897, T204D)
T1 construct: The kinase domain of human ALK5 (amino acids 200-503); made in house; host or cells: insect cells (baculovirus)
T1 sequence (P36897 200-503 T204D): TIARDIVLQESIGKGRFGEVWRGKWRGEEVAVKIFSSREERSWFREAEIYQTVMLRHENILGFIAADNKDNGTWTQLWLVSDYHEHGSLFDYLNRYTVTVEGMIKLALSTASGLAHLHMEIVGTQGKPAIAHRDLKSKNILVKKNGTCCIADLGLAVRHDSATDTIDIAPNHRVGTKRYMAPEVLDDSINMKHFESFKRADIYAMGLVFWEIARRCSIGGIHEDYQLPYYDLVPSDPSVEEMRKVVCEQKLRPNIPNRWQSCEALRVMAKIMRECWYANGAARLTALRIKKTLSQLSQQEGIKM
Assay: ALK5 kinase assay ([33P] phosphate incorporation into casein)
Assay type: biochemical
Settings: casein substrate, 1 μM unlabelled ATP
Procedure, shortened: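 His-tagged human ALK5 T204D kinase domain (aa 200-503, constitutively active, baculovirus/insect-cell expressed), 50 ng/well, preincubated 10 min with compound and dephosphorylated casein (200 μg/well) in Tris pH 7.4/MgCl2/MnCl2. Reaction started with 1 μM ATP plus [33P]ATP, 50 min at room temperature, EDTA-stopped; casein-bound 33P counted by scintillation after filter capture.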

First: Cc1cccc(-c2cc(-c3cncc(-c4ccc(C(C)N)cc4)c3)c3cc[nH]c3n2)n1 (centres unmarked) [Example 112, 1-(4-{5-[6-(6-Methyl-pyridin-2-yl)-1H-pyrrolo[2,3-b]pyridin-4-yl]-pyridin-3-yl}-phenyl)-ethylamine]
Second: Cc1cccc(-c2nc(-c3cncc(-c4ccc(C(C)N)cc4)c3)c3cc[nH]c3n2)n1 (centres unmarked) [Example 81, 1-(4-{5-[2-(6-Methyl-pyridin-2-yl)-7H-pyrrolo[2,3-d]pyrimidin-4-yl]-pyridin-3-yl}-phenyl)-ethylamine]
The IC50 of the first is 2.4-fold lower: 7 nM for the first, 17 nM for the second.

Cc1cccc(-c2nc(-c3cncc(NC(=O)CCN)c3)c3cc[nH]c3n2)n1 [Example 50, 3-amino-N-{5-[2-(6-methyl-pyridin-2-yl)-7H-pyrrolo[2,3-d]pyrimidin-4-yl]-pyridin-3-yl}-propionamide] and Cc1cccc(-c2nc(-c3cncc(NC(=O)CCO)c3)c3cc[nH]c3n2)n1 [Example 54, 3-Hydroxy-N-{5-[2-(6-methyl-pyridin-2-yl)-7H-pyrrolo[2,3-d]pyrimidin-4-yl]-pyridin-3-yl}-propionamide] are within 1.5-fold of each other in IC50: 149 nM for the first, 119 nM for the second.

Cc1cccc(-c2nc(-c3cncc(N4CCC(O)CC4)c3)c3cc[nH]c3n2)n1 [Example 49, 5′-[2-(6-Methyl-pyridin-2-yl)-7H-pyrrolo[2,3-d]pyrimidin-4-yl]-3,4,5,6-tetrahydro-2H-[1,3′]bipyridinyl-4-ol] and Cc1cccc(-c2nc(-c3cncc(N4CCCCC4)c3)c3cc[nH]c3n2)n1 [Example 48, 5′-[2-(6-Methyl-pyridin-2-yl)-7H-pyrrolo[2,3-d]pyrimidin-4-yl]-3,4,5,6-tetrahydro-2H-[1,3′]bipyridinyl] are within 1.5-fold of each other in IC50: 1080 nM for the first, 1340 nM for the second.

Cc1cccc(-c2nc(-c3cncc(-c4cccc(CN)c4)c3)c3cc[nH]c3n2)n1 [Example 59, 3-{5-[2-(6-Methyl-pyridin-2-yl)-7H-pyrrolo[2,3-d]pyrimidin-4-yl]-pyridin-3-yl}-benzylamine] and COc1cccc(-c2cncc(-c3nc(-c4cccc(C)n4)nc4[nH]ccc34)c2)c1 [Example 6, 4-[5-(3-Methoxy-phenyl)-pyridin-3-yl]-2-(6-methyl-pyridin-2-yl)-7H-pyrrolo[2,3-d]pyrimidine] are within 1.5-fold of each other in IC50: 30 nM for the first, 32 nM for the second.

Going from c1ccc(-c2nc(-c3cccnc3)c3cc[nH]c3n2)nc1 [Example 1, 4-Pyridin-3-yl-2-pyridin-2-yl-7H-pyrrolo[2,3-d]pyrimidine] to CSc1cncc(-c2nc(-c3cccc(C)n3)nc3[nH]ccc23)c1 [Example 94, 2-(6-Methyl-pyridin-2-yl)-4-(5-methylsulfanyl-pyridin-3-yl)-7H-pyrrolo[2,3-d]pyrimidine], the IC50 falls from 1180 nM to 191 nM (6.2-fold). The second is the more potent here.

Going from COc1ccccc1-c1cncc(-c2nc(-c3cccc(C)n3)nc3[nH]ccc23)c1 [Example 8, 4-[5-(2-Methoxy-phenyl)-pyridin-3-yl]-2-(6-methyl-pyridin-2-yl)-7H-pyrrolo[2,3-d]pyrimidine] to Cc1cccc(-c2nc(-c3cncc(-c4ccccc4F)c3)c3cc[nH]c3n2)n1 [Example 24, 4-[5-(2-Fluoro-phenyl)-pyridin-3-yl]-2-(6-methyl-pyridin-2-yl)-7H-pyrrolo[2,3-d]pyrimidine], the IC50 falls from 478 nM to 34 nM (14-fold).

Cc1cccc(-c2cc(-c3cncc(-c4cccc(CN(C)C)c4)c3)c3cc[nH]c3n2)n1 [Example 66, Dimethyl-(3-{5-[6-(6-methyl-pyridin-2-yl)-1H-pyrrolo[2,3-b]pyridin-4-yl]-pyridin-3-yl}-benzyl)-amine] and Cc1cccc(-c2cc(-c3cncc(-c4cccc(CN(C)CCO)c4)c3)c3cc[nH]c3n2)n1 [Example 142, 2-[Methyl-(3-{5-[6-(6-methyl-pyridin-2-yl)-1H-pyrrolo[2,3-b]pyridin-4-yl]-pyridin-3-yl}-benzyl)-amino]-ethanol] cannot be ordered by IC50: < 69 nM for the first, 10 nM for the second.

Cc1cccc(-c2cc(-c3cncc(-c4cccc(CN(C)CC(=O)O)c4)c3)c3cc[nH]c3n2)n1 [Example 143, [Methyl-(3-{5-[6-(6-methyl-pyridin-2-yl)-1H-pyrrolo[2,3-b]pyridin-4-yl]-pyridin-3-yl}-benzyl)-amino]-acetic acid] and CNCc1cccc(-c2cncc(-c3cc(-c4cccc(C)n4)nc4[nH]ccc34)c2)c1 [Example 68, Methyl-(3-{5-[6-(6-methyl-pyridin-2-yl)-1H-pyrrolo[2,3-b]pyridin-4-yl]-pyridin-3-yl}-benzyl)-amine] cannot be ordered by IC50: 30 nM for the first, < 32 nM for the second.

Going from Cc1cccc(-c2cc(-c3cncc(-c4cccc(CN5CCN(C)CC5)c4)c3)c3cc[nH]c3n2)n1 [Example 63, 4-{5-[3-(4-Methyl-piperazin-1-ylmethyl)-phenyl]-pyridin-3-yl}-6-(6-methyl-pyridin-2-yl)-1H-pyrrolo[2,3-b]pyridine] to Cc1cccc(-c2cc(-c3cncc(-c4cccc(CNCCO)c4)c3)c3cc[nH]c3n2)n1 [Example 132, 2-(3-{5-[6-(6-Methyl-pyridin-2-yl)-1H-pyrrolo[2,3-b]pyridin-4-yl]-pyridin-3-yl}-benzylamino)-ethanol], the IC50 falls from 12 nM to 5.3 nM (2.3-fold).

Cc1cccc(-c2cc(-c3cncc(-c4cncc(CN(C)C)c4)c3)c3cc[nH]c3n2)n1 [Example 91, Dimethyl-{5′-[6-(6-methyl-pyridin-2-yl)-1H-pyrrolo[2,3-b]pyridin-4-yl]-[3,3′]bipyridinyl-5-ylmethyl}-amine] and CNCc1cncc(-c2cncc(-c3cc(-c4cccc(C)n4)nc4[nH]ccc34)c2)c1 [Example 92, Methyl-{5′-[6-(6-methyl-pyridin-2-yl)-1H-pyrrolo[2,3-b]pyridin-4-yl]-[3,3′]bipyridinyl-5-ylmethyl}-amine] are within 1.5-fold of each other in IC50: 109 nM for the first, 103 nM for the second.

First: Cc1cccc(-c2cc(-c3cncc(-c4ccc(C(C)(C)N(C)C)cc4)c3)c3cc[nH]c3n2)n1 [Example 160, Dimethyl-[1-methyl-1-(4-{5-[6-(6-methyl-pyridin-2-yl)-1H-pyrrolo[2,3-b]pyridin-4-yl]-pyridin-3-yl}-phenyl)-ethyl]-amine]
Second: Cc1cccc(-c2cc(-c3cncc(-c4ccc(CO)cc4)c3)c3cc[nH]c3n2)n1 [Example 82, (4-{5-[6-(6-Methyl-pyridin-2-yl)-1H-pyrrolo[2,3-b]pyridin-4-yl]-pyridin-3-yl}-phenyl)-methanol]
The IC50 of the first is 2-fold lower: 5.9 nM for the first, 12 nM for the second.

Compared with Cc1cccc(-c2cc(-c3cncc(-c4ccc(CN5CC[C@@H](N(C)C)C5)cc4)c3)c3cc[nH]c3n2)n1 [Example 108, Dimethyl-[(R)-1-(4-{5-[6-(6-methyl-pyridin-2-yl)-1H-pyrrolo[2,3-b]pyridin-4-yl]-pyridin-3-yl}-benzyl)-pyrrolidin-3-yl]-amine], COc1ccc(-c2cncc(-c3nc(-c4cccc(C)n4)nc4[nH]ccc34)c2)cc1 [Example 5, 4-[5-(4-Methoxy-phenyl)-pyridin-3-yl]-2-(6-methyl-pyridin-2-yl)-7H-pyrrolo[2,3-d]pyrimidine] is 25-fold higher in IC50: 4.6 nM for the first, 115 nM for the second. The first is the more potent here.

Compared with CN1CCN(C(=O)c2ccc(-c3cncc(-c4nc(-c5ccccn5)nc5[nH]ccc45)c3)cc2)CC1 [Example 42, (4-Methyl-piperazin-1-yl)-{4-[5-(2-pyridin-2-yl-7H-pyrrolo[2,3-d]pyrimidin-4-yl)-pyridin-3-yl]-phenyl}-methanone], Cc1cccc(-c2nc(-c3cncc(-c4ccc(C5CNCCN5)cc4)c3)c3cc[nH]c3n2)n1 (centres unmarked) [Example 87, 2-(6-Methyl-pyridin-2-yl)-4-[5-(4-piperazin-2-yl-phenyl)-pyridin-3-yl]-7H-pyrrolo[2,3-d]pyrimidine] is 1.7-fold lower in IC50: 17 nM for the first, 10 nM for the second. The second is the more potent here.
